# Experimental data taken from patent US20040033555A1 (priority 2003, published 2004).
# Where two headings read alike, the source gives them in different places.
# Columns and labels:
# Phytophthora infestans = assay type: in vivo; conditions: preventative foliar spray, tomato; for % Disease Area, Photon Imaging: chlorophyll fluorescence; for % Disease Area, Visual Scoring: scored by eye
# [1] = system: Erysiphe graminis f sp. hordei; assay: Preventative control of powdery mildew on barley, % disease area by visual scoring and by photon imaging (fluorescein diacetate fluorescence); assay type: in vivo; conditions: preventative foliar spray; for % Disease Area, Photon Imaging: FDA fluorescence; for % Disease Area, Visual Scoring: scored by eye
# Procedure: Barley plants (Hordeum vulgari, cv. Boone) are cultivated either as single or multiple plants per plant growth unit, typically in a 2.54 cm by 2.54 cm pot of soil. Plants are grown in an environmentally regulated growth chamber at 20° C. and 70% humidity. The plants are approximately 7 days old at the time of application of the plant treatment agent. Single plant units are sprayed with fungicide standards or experimental plant treatment agents to the point of run-off.
# Twenty-four hours following application of the plant treatment agent the barley plants are subsequently inoculated with spores of a fungal plant pathogen and incubated under the appropriate conditions for a period sufficient to allow the development of visible disease symptoms.
# Inoculation with powdery mildew is with a spore suspension of Erysiphe graminis f. sp. hoerdei, (the causal agent of barley powdery mildew). Powdery mildew-inoculated plants are placed in a dry area for 4 hours following inoculation and are subsequently grown for an additional seven days at 20° C. and 65% humidity. Powdery mildew-infected plants are 15 days old at the time of rating of disease.
# For the determination of the % disease area for a sample, a binary image is generated which defined the area of pixels associated with a LGM for each object in the field of view. The percent disease area is calculated by dividing the pixel number for the LGM area by the pixel number for the sample area. For the detection of a LGM endogenous to the plant substrate, an additional step of subtracting the fluorescence area from the total leaf area and then dividing by the total leaf area is required for the percent disease area calculation.
# The effectiveness of a plant treatment agent on plants infected with a disease organism is determined by treating the test unit with a pro-LGM and detecting photon emission. Barley plants cultivated as described above are given 125 μL spray applications of a preventative treatment containing 40, 5, 1, 0.4 and 0.2 ppm flusilazole. The plant treatment agent is formulated by resuspending the appropriate amount of the dried compound in 6 μL of DMSO with shaking overnight, followed by the subsequent addition of 570 μL of a 50/50 Acetone/Water-Trem solution, yielding the desired final concentration. The Water-Trem contains 18 drops of the Trem® 014 surfactant (Henkel Corp, Amber, Pa.) per L of water. The formulated plant treatment agent is applied as a foliar spray application. In this example, a microsprayer apparatus (U.S. Patent Application No. 60/172,928) applying a fine aerosol mist from the tip of an ultrasonic nebulizer, with air assist, to a rotating electrostatically charged perpendicular plant target is employed.
# Twenty-four hours following application of the plant treatment agent the barley plants are subsequently inoculated with a suspension of powdery mildew (Erysiphe graminis f sp. hordei) spores, and incubated under the appropriate conditions for a period sufficient to allow the development of visible disease symptoms, as described above. Untreated plants are also infected at this time for the production of untreated, infected controls. Untreated, uninfected control plants are also generated in parallel.
# Plants to be rated for fungicide activity are first scored visually by eye for % disease coverage. The same samples are subsequently treated with the pro-LGM fluorescein diacetate. The FDA is formulated in a stock solution at 1 mg FDA/mL acetone. A final working solution is formulated which contains 5 μg/mL fluorescein diacetate and 0.005% Trem® 014. The FDA working solution is applied by spraying the sample using a Preval® sprayer (Precision Valve Corporation, Yonkers, N.Y.) with sufficient solution to wet all surfaces. Care must be taken not to allow access of FDA to leaves with cuts or abraded surfaces. […]
# Magnaportha grisea = conditions: 5 ppm, systemic application to media prior to seeding, Eragrostis curvula, M. grisea strain expressing a FP
structure (smiles),measurement,setting,value
COCC(=O)N(c1c(C)cccc1C)C(C)C(=O)OC (centres unmarked) [Ridomil],"% Disease Area, Photon Imaging",Phytophthora infestans; 1 ppm,60%
same,"% Disease Area, Visual Scoring",Phytophthora infestans; 1 ppm,53%
same,"% Disease Area, Photon Imaging",Phytophthora infestans; 5 ppm,10%
same,"% Disease Area, Visual Scoring",Phytophthora infestans; 5 ppm,24%
same,"% Disease Area, Photon Imaging",Phytophthora infestans; 20 ppm,2%
same,"% Disease Area, Visual Scoring",Phytophthora infestans; 20 ppm,3%
C[Si](Cn1cncn1)(c1ccc(F)cc1)c1ccc(F)cc1 [flusilazole],"% Disease Area, Photon Imaging",[1]; 0.2 ppm,64%
same,"% Disease Area, Visual Scoring",[1]; 0.2 ppm,52%
same,"% Disease Area, Photon Imaging",[1]; 0.4 ppm,27%
same,"% Disease Area, Visual Scoring",[1]; 0.4 ppm,19%
same,"% Disease Area, Photon Imaging",[1]; 1 ppm,24%
same,"% Disease Area, Visual Scoring",[1]; 1 ppm,7%
same,"% Disease Area, Photon Imaging",[1]; 5 ppm,13%
same,"% Disease Area, Visual Scoring",[1]; 5 ppm,1%
same,"% Disease Area, Photon Imaging",[1]; 40 ppm,0%
same,"% Disease Area, Visual Scoring",[1]; 40 ppm,0%
Cc1cccc2sc3nncn3c12 [tricyclazole],"FP fluorescence relative to untreated, inoculated control",Magnaportha grisea,reduced fluorescence
